Test results published in a melting point compilation (Tetko et al.).

Settings: a range is the spread between reports

melting point	SMILES
53 to 53.2 °C	Cc1ccc([N+](=O)[O-])c(F)c1
42 to 43 °C	O=C(Oc1ccccc1)c1ccccc1O
28 to 29 °C	Cc1ccc(Cc2ccc(C)cc2)cc1
34 to 34.8 °C	COc1ccc(C=O)c2ccccc12
49 to 50 °C	COC(=O)c1ccc(OC)cc1
96 to 98.5 °C	CC(=O)c1cccc(N)c1
131 to 132 °C	Oc1ccccc1-c1nc2ccccc2s1
148 to 149 °C	COc1cc(OC)c2ccc(=O)oc2c1
72 to 73.8 °C	Cc1ccc2cccc(O)c2n1
188 to 189 °C	O=C(O)c1ccc(F)cc1F
33.5 to 35 °C	COc1ccc(N)c(OC)c1
67.5 to 69 °C	COC(=O)c1cccc(C(=O)OC)c1
130 to 134 °C	O=C(O)c1ccco1
112 to 113 °C	COc1cc(C=O)cc(OC)c1O
22.5 to 23 °C	Clc1cc(Cl)nc(Cl)n1
240 °C	CCn1cc(C(=O)O)c(=O)c2cc(F)c(N3CCNC(C)C3)c(F)c21 (stereo unspecified)
152 to 154 °C	Cc1cc(C)c(C(=O)O)c(C)c1
-20 to -16 °C	CC(C)(C)Br
151 to 152 °C	COc1cccc(C(=O)O)c1O
168 to 169 °C	O=C(O)c1cccc(Cl)c1Cl
34 to 38 °C	CCN(CC)c1ccc(Br)cc1
208 °C	O=[N+]([O-])c1ccc2nc[nH]c2c1
210 to 212 °C	O=C(O)c1cccc([N+](=O)[O-])c1C(=O)O
-48 to -47.8 °C	Cc1cccc(Cl)c1
73 to 74 °C	Cc1cc(Br)c(C)cc1Br
71.5 to 75 °C	Cc1cccc(O)c1C

melting point	SMILES
204 to 206 °C	Cc1cc2nc[nH]c2cc1C
125 to 130 °C	CC(C)(CO)CO
88 to 91 °C	COc1ccc(-c2ccccc2)cc1
-73.4 to -73 °C	CC(=O)OC(C)C
70 to 75 °C	OCc1ccc(Cl)cc1
192 to 194 °C	O=C(O)c1cc2ccccc2o1
101 to 102 °C	COc1ccc2c(c1OC)C(=O)OC2
31 to 33 °C	Cc1ccc(N)cc1F
142 to 143 °C	O=C1Cc2ccccc2C(=O)O1
162 to 163 °C	O=C(O)c1ccccc1I
358 to 359 °C	O=C(O)c1ccc(C(=O)O)s1
37 to 39 °C	CCOc1ccc(C(C)=O)cc1
-84.3 to -84 °C	CCc1cc(C)cc(C)c1
164 to 168 °C	Cc1c(C)c(C)c(C)c(C)c1C
107 to 108 °C	Cc1cc(O)cc(O)c1
89 to 90 °C	O=C(c1cccs1)c1cccs1
-41.4 to -41 °C	Cc1cccc(C(C)(C)C)c1
74 to 75 °C	O=C1c2ccccc2C(=O)N1CCCBr
4 to 4.5 °C	Fc1cc(F)c(F)cc1F
46 to 47 °C	O=CNc1ccccc1
-74 to -73 °C	CCC(C)(C)Cl
105 to 106 °C	Oc1ccccc1O
140 to 142 °C	NC(=O)c1ccccc1O
65 to 65.5 °C	CCCCOc1ccc(O)cc1
154 to 157 °C	O=C1OC2(OC=C(c3ccccc3)C2=O)c2ccccc21 (stereo unspecified)
42 to 43 °C	O=C=Nc1ccc(Cl)c(Cl)c1

melting point	SMILES
146 to 148 °C	O=C(O)c1ccccc1[N+](=O)[O-]
133 to 134 °C	COc1cccc(C(N)=O)c1
100 to 105 °C	CC1(C)C(=O)NC(=O)N1CO
76 to 81 °C	O=C(c1ccccc1)c1cccc(Br)c1
75 to 79 °C	COc1ccc(C=CC(=O)c2ccccc2)cc1
109 to 112 °C	Cc1cccc(C(=O)O)c1
99 to 100 °C	CCC(=O)c1ccc(O)cc1O
9 to 10 °C	O=[N+]([O-])c1ccc(F)cc1F
179 to 182 °C	NC(=S)NS(=O)(=O)c1ccc(N)cc1
-103 to -102 °C	CCCC(C)(C)O
18 to 19.5 °C	Cc1ccccc1-c1ccccc1C
34 to 36.5 °C	Cc1ccc(O)c([N+](=O)[O-])c1
186 to 188 °C	CC(C)(C)c1cc(C=O)cc(C(C)(C)C)c1O
164 to 169 °C	Cc1cc(N)c2ccccc2n1
6 to 10 °C	OCc1cccc(Oc2ccccc2)c1
109 to 113 °C	OCc1cc(Br)ccc1O
120 to 121 °C	Cc1ccc(-c2ccc(C)cc2)cc1
187 to 188 °C	c1ccc2cc(-c3ccc4ccccc4c3)ccc2c1
155 to 157 °C	O=C1c2ccccc2Cc2ccccc21
-128 °C	CC(C)CC(C)C(C)C (stereo unspecified)
166 to 168 °C	NNC(=O)c1ccc(Br)cc1
30.5 to 34 °C	O=[N+]([O-])c1ccc(Cl)cc1Cl
176 to 178 °C	CC1(C)NC(=O)NC1=O
36 to 40.4 °C	Ic1cccc(I)c1
-28 to -27.5 °C	CCc1cccc(-c2ccccc2)c1

Second part, the compound before the results:

SMILES	melting point
Ic1ccc(-c2ccccc2)cc1	112 to 114 °C
Cc1nnc(N)s1	224 to 225 °C
O=c1[nH]c2ccccc2n1CCCN1CCC(n2c(=O)[nH]c3cc(Cl)ccc32)CC1	238 to 242 °C
CC(Cl)C(Cl)(Cl)Cl (stereo unspecified)	-65 to -64 °C
CCCCCC1CCCCC1	-58 to -57.5 °C
CCC(=O)O	-21.1 to -20.7 °C
CC(=O)Nc1ccccc1C(=O)O	184 to 186 °C
CC(C)(c1ccccc1)c1ccc(O)cc1	70 to 75 °C
OC(c1ccccc1)c1ccccc1	66 to 69 °C
O=C1CC(=O)NC(=S)N1	234 to 235 °C
BrC(c1ccccc1)(c1ccccc1)c1ccccc1	153 to 154 °C
BrCBr	-53 to -52 °C
Nc1ccc(Br)cc1	63 to 66.4 °C
N#CCc1cccc(Cl)c1	11.5 to 12 °C
CCCCCC#N	-80.3 to -80 °C
O=P(O)(c1ccccc1)c1ccccc1	194 to 195 °C
CC(C)C1CC1	-113 °C
CCCCCCCCCC(=O)Cl	-35 to -34.5 °C
CCCCCCCCCc1ccc(O)cc1	42 to 45 °C
COP(=O)(OC)OC(=CCl)c1cc(Cl)c(Cl)cc1Cl	96 to 97.5 °C
C=CC#N	-84 to -83.5 °C
N#CSCSC#N	105 to 106 °C
O=C(O)COc1ccccc1	98.5 to 100 °C
CCCCCCCCS	-49.2 to -49 °C

SMILES	melting point
CCOC(=O)C(O)(c1ccc(Cl)cc1)c1ccc(Cl)cc1	36 to 37 °C
Clc1cccc(Cl)c1Cl	52.6 to 55 °C
CCS	-148 °C
COCC(C)O (stereo unspecified)	-100 to -95 °C
Nc1c(Cl)cc([N+](=O)[O-])cc1Cl	189 to 191 °C
CI	-67 to -64 °C
Nc1cccc2cccnc12	65 to 70 °C
OCCCCCCCCCCCCO	81.3 to 83 °C
O=C(Cl)c1ccccc1F	4 to 5 °C
CCCCCCCCCCCCCO	32.5 to 34 °C
O=[N+]([O-])c1ccc(Cl)c([N+](=O)[O-])c1	50 to 53 °C
NC(=O)Oc1ccccc1	150 to 151 °C
O=NN1CN2CN(C1)CN(N=O)C2	204 to 207 °C
CCNc1nc(Cl)nc(NCC)n1	226 to 228 °C
ClC1c2ccccc2CCc2ccccc21	106 to 107 °C
OCCOCCO	-10.4 to -10 °C
Nc1c(Cl)cc([N+](=O)[O-])cc1[N+](=O)[O-]	154 to 157 °C
Nc1ccc(Cl)cc1[N+](=O)[O-]	116 to 118 °C
O=C(O)CCCCCCCCCCC(=O)O	128 to 129 °C
CS(C)=O	18 to 18.5 °C
NCCCCCCCN	28 to 28.9 °C
CC(Oc1cccc(Cl)c1)C(=O)O (stereo unspecified)	113 to 115 °C
O=CN1CCOCC1	21 to 22 °C
CCOC(=O)C(O)(c1ccccc1)c1ccccc1	30 to 34 °C

SMILES	melting point
CCCCCCCCC(=O)CC	9 to 13 °C
CC=CC=CCO	30.5 to 31 °C
c1ccc(COc2ccccc2)cc1	39 to 40 °C
Cc1cc([N+](=O)[O-])ccc1N	132 to 134 °C
CC1=C(C)CCC1	-90.4 to -90 °C
c1ccc(OCCOc2ccccc2)cc1	95 to 98 °C
N#Cc1ccccc1Br	55 to 55.5 °C
Nc1cccc(Cl)c1	-10.4 to -10 °C
Clc1ccc(Br)cc1	65 to 68 °C
CCOC(=O)Cc1ccccc1	-29.4 to -29 °C
C=CCCCCCCCCCC	-37 to -35 °C
CC(C)(Cl)Cl	-34 to -33.8 °C
N#CN	44 to 45.6 °C
Cc1ccc(N=C=O)cc1N=C=O	20 to 21 °C
O=C(O)CO	77 to 80 °C
C=CCNCC=C	-88.4 to -88 °C
OCCN1CCOCC1	-1.6 to 2 °C
COc1cc(OC)c(OC)cc1C=O	113 to 114 °C
ClCCOc1ccccc1	24 to 28 °C
COC(=O)CCC(=O)O	57.5 to 58 °C
CC(N)=O	79 to 81 °C
CN1C2CCC1CC(=O)C2	42 to 43 °C
ClCCCCl	-100 to -99.5 °C
C1CNCCNC1	41 to 43.5 °C

SMILES	melting point
CC1(C(=O)O)CCCCC1	37.5 to 38 °C
CCC(=O)OC	-88 to -87.5 °C
C1=CC2C=CC1C2	-20 to -19.1 °C
Nc1ccc([N+](=O)[O-])cc1N	199 to 201 °C
C=C(C)CCC(=C)C	-75.6 to -75 °C
CCCCCCCCCCCCCCCCCCCCCCCCCCCCC	63.7 to 66 °C
CCCCCCCCCCCCCC(=O)CCCCCCCCCCCCC	77.5 to 78 °C
CCCCCCCCCC=O	-6 to -5 °C
N#CCc1ccc(Cl)cc1	30 to 31 °C
Nc1c(Br)cc(Br)cc1Br	120 to 122 °C
O=C(Cl)N(c1ccccc1)c1ccccc1	83 to 84 °C
CCOC(=O)CCCCCCCCC(=O)OCC	2 to 5 °C
CC/C=C/CC(=O)O	11 to 12 °C
O=C(O)CCCCCCCCCCCCCCCCCCC(=O)O	126 to 127 °C
CCC(=O)c1ccc(C)cc1	7 to 7.2 °C
CCCCCCCCCCBr	-30 to -29 °C
C=C(C)CC(C)C	-124 °C
Brc1sc(Br)c(Br)c1Br	115 to 118 °C
S=c1nc[nH]c2nc[nH]c12	313 to 314 °C
O=Cc1ccco1	-38.1 to -36 °C
CCCCCCCC1CCCCC1	-31 to -30 °C
Fc1cccc2ccccc12	-13 to -9 °C
